{"source": "patent US20090055945A1", "about": "“Method for Producing Nuclear-Transplanted Egg” (priority 2005, published 2009)", "key": {"[1]": {"test_system": "immortalized bovine mammary epithelial cells (MECL) or bovine fetal fibroblasts (BFF)", "details": "MECL or BFF treated before nuclear transfer; Non-patent Document 2; cited from earlier work"}, "[2]": {"test_system": "nuclear transfer oocytes (nuclei from cumulus cells in enucleated oocytes)", "test": "Expanded blastocyst formation of nuclear transfer oocytes (cumulus cell nuclei)", "format": "cell-based, mouse", "details": "5 μM apicidin", "description": "Production of cloned mice including production of nuclear transfer embryos was carried out according to the method as described in Non-patent Document 5. Briefly, pregnant mare serum gonadotrophin (PMSG) was first administered to 8-weeks-old female B6D2F1 (C57BL/6 XDBA/2) mice (Japan SLC) for superovulation treatment. Human choriogonadotropin (hCG) was administered after 48 hours. Oocytes were collected after 16 hours. Nuclei were removed from the collected unfertilized oocytes in the presence of 5 μg/ml of cytochalasin B using a micromanipulator (enucleation).\nNext, cell membranes of cumulus cells from a B6D2F1 mouse as donor somatic cells suspended in a 1.2% polyvinylpyrrolidone (PVP) solution were destroyed using an injection pipette, and the nuclei were injected into the enucleated oocytes using a micromanipulator (nuclear transfer). A piezo drive apparatus (Prime Tech) was used to generate piezo-pulses for penetration of zona pellucida or cell membranes which is required for injection of nuclei.\nThe thus obtained nuclear transfer oocytes were cultured in a CO2 incubator at 37° C. for 30 minutes to 1 hour. The oocytes were then transferred to an oocyte activation solution (Ca^2+-free CZB medium supplemented with 5 mM strontium chloride (SrCl2) and 5 μg/ml of cytochalasin B (Non-patent Document 10)) containing 0.5, 5, 50 or 500 nM trichostatin A (hereinafter referred to as TSA) to artificially activate the oocytes and initiate the development. Activation of oocytes was confirmed 6 hours after the initiation of activation using pronuclei formation as an index. Activated nuclear transfer oocytes were transferred to KSOM medium (Specialty Media) containing TSA at the same concentration, and cultured for further 14 hours (for 20 hours after the initiation of activation) in the medium. For a control, dimethyl sulfoxide (DMSO), which was used for dissolving TSA, was used in place of TSA to produce the same concentration.\nThen, the nuclear transfer embryos at the 2-cell stage were cultured in KSOM medium without TSA until 96 hours after the initiation of activation, and development into expanded blastocysts was observed. The development into expanded blastocyst was confirmed by culturing for 96 hours after the initiation of activation and then observing under a microscope one in which the volume of embryo was increased to result in expansion of the blastocyst and thinning of zona pellucida among blastocysts having blastocoels. 80 or more embryos were examined in each of the experimental groups of the respective concentrations.\nThe ratio of the developed blastocysts to the number of nuclear transfer oocytes used (blastocyst formation rate (%)) was determined. The ratio of the developed expanded blastocysts to the number of oocytes that initiated cleavage (i.e., developed into the 2-cell stage) among the reconstructed nuclear transfer oocytes (blastocyst formation rate (%)) was determined.\nNuclear transfer oocytes were produced by injecting nuclei from cumulus cells into enucleated oocytes according to the method as described in Example 1, cultured in KSOM medium containing TSA at a concentration of 5 nM for various periods of time (for 0, 24, 48 or 72 hour(s) from the initiation of activation), and then cultured in KSOM medium without TSA until 96 hours after the initiation of activation. Then, development into expanded blastocysts was observed and the blastocyst formation rate was determined. […]"}, "[3]": {"test_system": "oocytes injected with mature sperm (ICSI)", "test": "Paternal genome DNA methylation, mature sperm injection (ICSI)", "format": "cell-based, mouse", "details": "10 μM 5-azacytidine, 20 hours", "description": "The oocytes injected with the nuclear domains of round spermatids obtained by ROSI were cultured for 20 hours in the presence of 20 ng/ml of demecolcine in a medium containing 10 μM 5-azacytidine (5-aza) or 500 nM TSA as an anti-methylation agent. Similarly, injection of mature sperms was carried out (ICSI (intracytoplasmic sperm injection)). Specifically, heads of sperms were separated from the tails by applying pulses to the head-tail junctions by means of a piezo-driven pipette (PrimeTech), and injected into oocytes. The oocytes were not subjected to activation in this case. […]\nFor quantitative analysis of pronuclear DNA methylation levels, fluorescence images were subjected to densitometric analysis using the program Image-J from the National Institute of Health (http://rsb.info.nih.gov/ij/). For each pronucleus, the relative intensity of methylation of the paternal genome was calculated as a percentage of the fluorescence intensity of the maternal genome. In Table 3, data with (b) and without (a) anti-methylation agent were statistically analyzed by Scheffe tests for multiple mean comparisons using the statistical program SPSS version 12.0 (SPSS Inc.). […]"}, "[4]": {"test_system": "oocytes injected with nuclear domains of round spermatids (ROSI)", "test": "Paternal genome DNA methylation, spermatid injection (ROSI)", "format": "cell-based, mouse", "details": "Spermatid (ROSI); 10 μM 5-azacytidine, 20 hours", "description": "The oocytes injected with the nuclear domains of round spermatids obtained by ROSI were cultured for 20 hours in the presence of 20 ng/ml of demecolcine in a medium containing 10 μM 5-azacytidine (5-aza) or 500 nM TSA as an anti-methylation agent. Similarly, injection of mature sperms was carried out (ICSI (intracytoplasmic sperm injection)). Specifically, heads of sperms were separated from the tails by applying pulses to the head-tail junctions by means of a piezo-driven pipette (PrimeTech), and injected into oocytes. The oocytes were not subjected to activation in this case.\nThe cultured oocytes injected with nuclei were fixed in PBS containing 4% paraformaldehyde at 4° C. overnight, washed in PBS containing 0.1% polyvinyl alcohol (PVA), and blocked in PBS containing 3% bovine serum albumin (BSA) and 0.2% Triton X-100 at 4° C. overnight. Subsequent steps were carried out at room temperature. The fixed oocytes injected with nuclei were permeabilized by treating with 0.2% Triton X-100 in PBS at room temperature. The oocytes were then treated with 2N HCl at room temperature for 50 minutes, neutralized in 100 mM Tris-HCl buffer (pH 8.0) (Non-patent Document 15), and extensively washed with PBS containing 1% BSA.\nNext, incubation. with an anti-5-methylcytidine antibody (Eurogentec) in PBS containing 0.1% PVA was carried out for 2 to 3 hours. After extensively being washed, oocytes were stained with Alexa Flour-488 secondary antibody (Molecular Probes), stained with 5 μg/ml 4′,6′-diamidino-2-phenylindole (DAPI) for 30 minutes, and mounted using Vectashield (Vector Laboratory). The specimens were observed using Olympus BX51 microscope (Olympus). All images were captured with DP70 Olympus digital camera using Olympus Analysis software to apply colors to DAPI-stained DNA and merged images.\nFor quantitative analysis of pronuclear DNA methylation levels, fluorescence images were subjected to densitometric analysis using the program Image-J from the National Institute of Health (http://rsb.info.nih.gov/ij/). For each pronucleus, the relative intensity of methylation of the paternal genome was calculated as a percentage of the fluorescence intensity of the maternal genome. In Table 3, data with (b) and without (a) anti-methylation agent were statistically analyzed by Scheffe tests for multiple mean comparisons using the statistical program SPSS version 12.0 (SPSS Inc.). All percentile data were subjected to arcsine transformation prior to the statistical analysis."}}, "data": [{"smiles": "CCCC(=O)[O-].[Na+]", "note": "[sodium butyrate]", "values": [{"measurement": "blastocyst development rate", "setting": "[1]", "result": "increased"}]}, {"smiles": "CCC(=O)CCCCC[C@@H]1NC(=O)[C@H]2CCCCN2C(=O)[C@H]([C@@H](C)CC)NC(=O)[C@H](Cc2cn(OC)c3ccccc23)NC1=O", "note": "[apicidin]", "values": [{"measurement": "increase in blastocyst formation rate vs control", "setting": "[2]", "result": "about 2 fold"}, {"measurement": "blastocyst formation rate", "setting": "[2]; method of Example 1", "result": 69.0, "unit": "%"}]}, {"smiles": "Nc1ncn([C@@H]2O[C@H](CO)[C@@H](O)[C@H]2O)c(=O)n1", "note": "[5-aza, 5-azacytidine]", "values": [{"measurement": "Ratio of methylation level of paternal genome to maternal genome (%)", "setting": "[3]", "result": "17.5^b %"}, {"measurement": "Ratio of methylation level of paternal genome to maternal genome (%)", "setting": "[4]", "result": "54.9^b %"}]}]}
